The source of these data is article PMC8922279, “Identification of β-Lactams Active against Mycobacterium tuberculosis by a Consortium of Pharmaceutical Companies and Academic Institutions” (ACS Infectious Diseases, 2022).

SMILES strings stand for the structures. Bounds are passed on as bounds.

For assay [1], the system named is Mtb H37Rv. The assay can be described thus: MIC90 against replicating (R) Mtb H37Rv, with or without clavulanate. The format is cell-based, Mycobacterium tuberculosis. The settings on record: Table S4; for Mtb H37Rv R + CLAV (MIC90): clavulanate 4 μg/mL; for Mtb H37Rv R (MIC90): no clavulanate.
In assay [2] the test system is Mtb H37Rv. The assay can be described thus: MIC90 against nonreplicating (NR, 4-stress) Mtb H37Rv, with or without clavulanate. It counts as cell-based, Mycobacterium tuberculosis. The settings on record: 4-stress nonreplicating, Table S4; for Mtb H37Rv NR + CLAV (MIC90): clavulanate 4 μg/mL; for Mtb H37Rv NR (MIC90): no clavulanate.
Assay [3] concerns E. coli. The assay can be described thus: Microbial spectrum, E. coli. The format is cell-based, Escherichia coli. As to conditions: clavulanate 4 μg/mL; Table S4.
For assay [4], the system named is P. aeruginosa. The assay can be described thus: Microbial spectrum, P. aeruginosa. It counts as cell-based, Pseudomonas aeruginosa. The settings on record: clavulanate 4 μg/mL; Table S4.
Assay [5] relates to S. aureus. Briefly: Microbial spectrum, S. aureus. It counts as cell-based, Staphylococcus aureus. As to conditions: clavulanate 4 μg/mL; Table S4.
In assay [6] the test system is C. albicans. Briefly: Microbial spectrum, C. albicans. The format is cell-based, Candida albicans. As to conditions: no clavulanate; Table S4.

For `CCn1nnnc1SCC1=C(C(=O)O)N2C(=O)[C@@H](NC(=O)Cc3ccc(C4=NCCN4)cc3)[C@H]2SC1` [TBBL-0000313], in assay [1], the Mtb H37Rv R + CLAV (MIC90) turned out to be 0.6 µM and the Mtb H37Rv R (MIC90) is 17.3 µM. Also, in assay [2], the Mtb H37Rv NR + CLAV (MIC90) was above 100 µM and the Mtb H37Rv NR (MIC90) was above 100 µM. Moreover, the E.coli R + CLAV (MIC90) in assay [3] came to 11.6 µM. In assay [4], the P.aeruginosa R + CLAV (MIC90) was above 100 µM. Besides, the S.aureus R + CLAV (MIC90) in assay [5] turned out to be 0.8 µM. In addition, in assay [6], the C.albicans R (MIC90) is above 100 µM.

For the molecule `Cn1nnnc1SCC1=C(C(=O)O)N2C(=O)[C@@H](NC(=O)CSc3cc(Cl)ccc3Cl)[C@H]2SC1` [TBBL-0000446], in assay [1], the Mtb H37Rv R + CLAV (MIC90) stood at 1.5 µM and the Mtb H37Rv R (MIC90) worked out at 20.7 µM. For the same molecule, in assay [2], the Mtb H37Rv NR + CLAV (MIC90) is above 100 µM and the Mtb H37Rv NR (MIC90) is above 100 µM. Further, in assay [3], the E.coli R + CLAV (MIC90) was 13.3 µM. In addition, the P.aeruginosa R + CLAV (MIC90) in assay [4] was above 100 µM. Also, in assay [5], the S.aureus R + CLAV (MIC90) is below 0.1 µM. For the same molecule, the C.albicans R (MIC90) in assay [6] is above 100 µM.

Regarding `CCCn1nnnc1SCC1=C(C(=O)O)N2C(=O)[C@@H](NC(=O)Cc3ccc(C4=NCCN4)cc3)[C@H]2SC1` [TBBL-0000311], in assay [1], the Mtb H37Rv R + CLAV (MIC90) was determined as 0.8 µM and the Mtb H37Rv R (MIC90) turned out to be 14.1 µM. For the same molecule, in assay [2], the Mtb H37Rv NR + CLAV (MIC90) was above 100 µM and the Mtb H37Rv NR (MIC90) was above 100 µM. Also, the E.coli R + CLAV (MIC90) in assay [3] was above 100 µM. For the same molecule, the P.aeruginosa R + CLAV (MIC90) in assay [4] was above 100 µM. The S.aureus R + CLAV (MIC90) in assay [5] was found to be 0.9 µM. Also, in assay [6], the C.albicans R (MIC90) was above 100 µM.

For the molecule `O=C(Cc1csc(=O)s1)N[C@@H]1C(=O)N2C(C(=O)O)=C(CSc3nnnn3CCO)CS[C@H]12` [TBBL-0000305], in assay [1], the Mtb H37Rv R + CLAV (MIC90) is 2.1 µM and the Mtb H37Rv R (MIC90) turned out to be 40.7 µM. In assay [2], the Mtb H37Rv NR + CLAV (MIC90) is above 100 µM and the Mtb H37Rv NR (MIC90) is above 100 µM. In addition, in assay [3], the E.coli R + CLAV (MIC90) came out at 7.5 µM. Further, the P.aeruginosa R + CLAV (MIC90) in assay [4] is above 100 µM. Further, the S.aureus R + CLAV (MIC90) in assay [5] was above 100 µM. The C.albicans R (MIC90) in assay [6] was above 100 µM.

For `O=C(Cc1cccs1)N[C@@H]1C(=O)N2C(C(=O)O)=C(C[n+]3ccccn3)CS[C@H]12` [TBBL-0000466], in assay [1], the Mtb H37Rv R + CLAV (MIC90) is 1.8 µM and the Mtb H37Rv R (MIC90) is 39 µM. Moreover, in assay [2], the Mtb H37Rv NR + CLAV (MIC90) was above 100 µM and the Mtb H37Rv NR (MIC90) was above 100 µM. Besides, the E.coli R + CLAV (MIC90) in assay [3] worked out at 35.1 µM. In addition, the P.aeruginosa R + CLAV (MIC90) in assay [4] is above 100 µM. Also, in assay [5], the S.aureus R + CLAV (MIC90) was determined as 0.5 µM. Also, in assay [6], the C.albicans R (MIC90) was above 100 µM.

Consider `CCc1cc[n+](CC2=C(C(=O)[O-])N3C(=O)[C@@H](NC(=O)Cc4cccs4)[C@H]3SC2)cc1` [TBBL-0000418], for which, in assay [1], the Mtb H37Rv R + CLAV (MIC90) was 1.4 µM and the Mtb H37Rv R (MIC90) amounted to 100 µM. Besides, in assay [2], the Mtb H37Rv NR + CLAV (MIC90) was above 100 µM and the Mtb H37Rv NR (MIC90) was above 100 µM. Also, in assay [3], the E.coli R + CLAV (MIC90) worked out at 7 µM. Besides, the P.aeruginosa R + CLAV (MIC90) in assay [4] is above 100 µM. In addition, in assay [5], the S.aureus R + CLAV (MIC90) is 0.5 µM. Besides, the C.albicans R (MIC90) in assay [6] was above 100 µM.

With `O=C(Cn1cnnn1)N[C@@H]1C(=O)N2C(C(=O)O)=C(CSc3cccc[n+]3[O-])CS[C@H]12` [TBBL-0000002], in assay [1], the Mtb H37Rv R + CLAV (MIC90) worked out at 5.8 µM and the Mtb H37Rv R (MIC90) was determined as 5.7 µM. Further, in assay [2], the Mtb H37Rv NR + CLAV (MIC90) is 3 µM and the Mtb H37Rv NR (MIC90) was 4.4 µM. For the same molecule, the E.coli R + CLAV (MIC90) in assay [3] is 15.3 µM. Besides, the P.aeruginosa R + CLAV (MIC90) in assay [4] was above 100 µM. Also, the S.aureus R + CLAV (MIC90) in assay [5] is 3.7 µM. In addition, the C.albicans R (MIC90) in assay [6] was above 100 µM.

On to `O=C(Cc1cccs1)N[C@@H]1C(=O)N2C(C(=O)[O-])=C(C[n+]3ccccc3)CS[C@H]12` [TBBL-0000493], for which, in assay [1], the Mtb H37Rv R + CLAV (MIC90) was 2.2 µM and the Mtb H37Rv R (MIC90) was determined as 50 µM. Besides, in assay [2], the Mtb H37Rv NR + CLAV (MIC90) is above 100 µM and the Mtb H37Rv NR (MIC90) is above 100 µM. Besides, the E.coli R + CLAV (MIC90) in assay [3] is 37.9 µM. In addition, the P.aeruginosa R + CLAV (MIC90) in assay [4] was above 100 µM. Further, the S.aureus R + CLAV (MIC90) in assay [5] stood at 0.8 µM. In assay [6], the C.albicans R (MIC90) was above 100 µM.

As to `N=C(N)SCc1ccccc1SC1=C(C(=O)O)N2C(=O)[C@@H](NC(=O)C(N)c3ccccc3)[C@H]2CC1` (stereo partly drawn) [TBBL-0000435], in assay [1], the Mtb H37Rv R + CLAV (MIC90) stood at 1.1 µM and the Mtb H37Rv R (MIC90) is 90.2 µM. Besides, in assay [2], the Mtb H37Rv NR + CLAV (MIC90) is above 100 µM and the Mtb H37Rv NR (MIC90) is above 100 µM. The E.coli R + CLAV (MIC90) in assay [3] was above 100 µM. Further, in assay [4], the P.aeruginosa R + CLAV (MIC90) was above 100 µM. Besides, the S.aureus R + CLAV (MIC90) in assay [5] came out at 0.8 µM. For the same molecule, the C.albicans R (MIC90) in assay [6] is above 100 µM.
